Source: US20250340561A1, “QUINAZOLINE COMPOUND FOR INDUCING DEGRADATION OF G12D MUTANT KRAS PROTEIN” (Astellas Pharma Inc., priority 2021, published 2025)

molecular target: T1, KRAS G12D (Homo sapiens, UniProt P01116, G12D); test: Test Example 1-2: KRAS degradation action in AsPC-1, Cell ELISA; assay type: cell-based; settings: AsPC-1 cells, overnight treatment, corrected with β-actin, 0% = 10 μM Example No. 26 (Example No. 8 for Example Nos. 74 and 75)
T1 construct: host or cells: AsPC-1 human pancreatic cancer cells
Experimental: Test Example 1-2: Evaluation of KRAS Degradation Action on Human G12D Mutant KRAS-Positive Pancreatic Cancer Line AsPC-1
The KRAS degradation action of test compounds was evaluated by measuring the expression levels of KRAS G12D by Cell ELISA.
[…] As for the cell culture conditions, a RPMI 1640 medium containing 10% fetal bovine serum was used in the presence of 5% CO2 at 37° C. The next day, the test compounds (10 points having final concentrations in the range of 10 μM to 0.3 nM), the compound of Example No. 26 (Example No. 8 for Example Nos. 74 and 75) of a final concentration of 10 μM as a positive control and DMSO, which was the solvent for the test compounds, as a negative control were diluted 500-fold with a fresh medium and were added at 20 μL per well. The cells were cultured overnight.
The next day, the culture supernatant was removed, and 4% paraformaldehyde phosphate buffer (from FUJIFILM Wako Pure Chemical Corporation) was added at 20 μL per well. The plate was allowed to stand for 30 minutes at room temperature to thus immobilize the cells. Then, the supernatant was removed, and 0.1% Triton X-100 (from Amersham Biosciences)-containing PBS was added at 20 μL per well. After allowing to stand for 10 minutes at room temperature, the supernatant was removed. PBS was added at 25 μL per well, and the supernatant was removed to thus wash each well. The washing was performed twice in total. Next, the supernatant was removed, and 0.5% sodium dodecyl sulfate (SDS; from Invitrogen)-containing PBS was added at 20 μL per well. After allowing to stand at room temperature for 10 minutes, the supernatant was removed by centrifugation (using a centrifugal dehydrator machine, the supernatant was removed by the same method hereinafter). PBS was added at 25 μL per well, and the supernatant was removed to thus wash each well. The washing was performed twice in total. The supernatant was removed by centrifugation, and a blocking solution (Intercept Blocking Buffer) was added at 20 μL per well. After allowing to stand for 30 minutes at room temperature, the supernatant was removed by centrifugation, and a solution obtained by diluting an anti-Ras (G12D Mutant Specific) antibody and an anti-3-actin antibody 1,000-fold with a blocking solution was added at 20 μL per well as a primary antibody. The plate was allowed to stand overnight at 4° C.
The next day, the plate was centrifuged to remove the supernatant. PBS was added at […], and the supernatant was removed to thus wash each well. The washing was performed twice in total. The supernatant was removed by centrifugation, and a solution obtained by diluting Donkey anti-Mouse IgG H&L (TRDye 680RD) (from Li—COR Biosciences) and Goat anti-Rabbit IgG H&L (IRDye 800CW) (from Li—COR Biosciences) 1,000-fold with a blocking solution was added at 20 μL per well as a secondary antibody. After allowing to stand for 1 hour at room temperature, the supernatant was removed. PBS was added at 25 μL per well, and the supernatant was removed to thus wash each well. The washing was performed twice in total. After removing the supernatant by centrifuging the plate, the plate was dried as it was with air at room temperature for 2 hours or more, and the 700-nm and 800-nm fluorescent signals were measured with Aerius (from LI-COR Biosciences).
With the signaling value at the time of addition of DMSO corrected with the signaling value of β-actin taken as 100% and with the signaling value at the time of addition of 10 μM of the compound of Example No. 26 taken as 0%, the 50% degradation values (DC50) of the amounts of KRAS were calculated by Sigmoid-Emax model nonlinear regression analysis. The molecular weights of the test compounds were calculated as the molecular weights of the trihydrochloride for Example No. 30, the tetrahydrochloride for Example No. 46 and the free forms forming no salt for the remaining Example Nos. The results for some test compounds of the formula (I) are shown in Table 2.

T1 sequence (P01116 1-188 isoform P01116-2 G12D): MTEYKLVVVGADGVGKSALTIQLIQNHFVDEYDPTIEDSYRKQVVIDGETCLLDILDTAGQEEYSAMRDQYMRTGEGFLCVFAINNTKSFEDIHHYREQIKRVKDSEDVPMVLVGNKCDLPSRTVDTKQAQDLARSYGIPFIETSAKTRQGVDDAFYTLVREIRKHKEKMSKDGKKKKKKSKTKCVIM

| SMILES | DC50 [nM] |
| --- | --- |
| Cc1ncsc1-c1ccc([C@H](CO)NC(=O)[C@@H]2C[C@@H](O)CN2C(=O)[C@H](C(C)C)n2cc(-c3ccc(COc4c(-c5c(C)c(F)cc6[nH]ncc56)c(C5CC5)cc5c(N6C[C@@H]7C[C@H]6CN7)nc(OC[C@@H]6CCOC6)nc45)cc3)nn2)cc1 [Example 53] | 8 |
| CO[C@H](C)[C@@H](C)Oc1nc(N2C[C@@H]3C[C@H]2CN3)c2cc(C3CC3)c(-c3c(C)c(F)cc4[nH]ncc34)c(OCc3ccc(-c4cn([C@H](C(=O)N5C[C@H](O)C[C@H]5C(=O)N[C@@H](CO)c5ccc(-c6scnc6C)cc5)C(C)C)nn4)cc3)c2n1 [Example 39] | 6 |
| COCCN1CC[C@H](Oc2nc(N3C[C@@H]4C[C@H]3CN4)c3cc(C4CC4)c(-c4c(C)c(F)cc5[nH]ncc45)c(OCc4ccc(-c5cn([C@H](C(=O)N6C[C@H](O)C[C@H]6C(=O)N[C@@H](CO)c6ccc(-c7scnc7C)cc6)C(C)C)nn5)cc4)c3n2)C1 [Example 32] | 139 |
| CO[C@@H](C)COc1nc(N2C[C@@H]3C[C@H]2CN3)c2cc(C3CC3)c(-c3c(C)c(F)cc4[nH]ncc34)c(OCc3ccc(-c4cn([C@H](C(=O)N5C[C@H](O)C[C@H]5C(=O)N[C@@H](CO)c5ccc(F)cc5)C(C)C)nn4)cc3)c2n1 [Example 58] | 37 |
| Cc1ncsc1-c1ccc([C@H](CO)NC(=O)[C@@H]2C[C@@H](O)CN2C(=O)[C@H](C(C)C)n2cc(-c3ccc(COc4c(-c5c(C)c(F)cc6[nH]ncc56)c(C5CC5)cc5c(N6C[C@@H]7C[C@H]6CN7)nc(OCC6(CO)CCOCC6)nc45)cc3)nn2)cc1 (atropisomer, axis not shown) [Example 36] | 17 |
| Cc1ncsc1-c1ccc([C@H](CO)NC(=O)[C@@H]2C[C@@H](O)CN2C(=O)[C@H](C(C)C)n2cc(-c3ccc(COc4c(-c5c(C)c(F)cc6[nH]ncc56)c(C5CC5)cc5c(N6C[C@@H]7C[C@H]6CN7)nc(O[C@H](C)CN6CCOCC6)nc45)cc3)nn2)cc1 [Example 45] | 15 |
| Cc1ncsc1-c1ccc([C@H](CO)NC(=O)[C@@H]2C[C@@H](O)CN2C(=O)[C@H](C(C)C)n2cc(-c3ccc(COc4c(-c5c(C)c(F)cc6[nH]ncc56)c(C5CC5)cc5c(N6C[C@@H]7C[C@H]6CN7)nc(O[C@H]6CCN(CCO)C6)nc45)cc3)nn2)cc1 [Example 31] | 138 |
| Cc1c(F)cc2[nH]ncc2c1-c1c(C2CC2)cc2c(N3C[C@@H]4C[C@H]3CN4)nc(OC3CCOCC3)nc2c1OCc1ccc(-c2cn([C@H](C(=O)N3C[C@H](O)C[C@H]3C(=O)N[C@@H](CO)c3cccc(S(C)(=O)=O)c3)C(C)C)nn2)cc1 [Example 67] | 840 |
| CO[C@@H](C)COc1nc(N2C[C@@H]3C[C@H]2CN3)c2cc(C3CC3)c(-c3c(C)c(F)cc4[nH]ncc34)c(OCc3ccc(-c4cn([C@H](C(=O)N5C[C@H](O)C[C@H]5C(=O)N[C@@H](CO)c5ccc(-c6ocnc6C)cc5)C(C)C)nn4)cc3)c2n1 [Example 72] | 16 |
| CO[C@@H](C)COc1nc(N2C[C@@H]3C[C@H]2CN3)c2cc(C3CC3)c(-c3c(C)c(F)cc4[nH]ncc34)c(OCc3ccc(-c4cn([C@H](C(=O)N5C[C@H](O)C[C@H]5C(=O)N[C@@H](CO)c5ccc(N6CCOC6=O)cc5)C(C)C)nn4)cc3)c2n1 [Example 59] | 45 |
| Cc1ncoc1-c1ccc([C@H](CO)NC(=O)[C@@H]2C[C@@H](O)CN2C(=O)[C@H](C(C)C)n2cc(-c3ccc(COc4c(-c5c(C)c(F)cc6[nH]ncc56)c(C5CC5)cc5c(N6C[C@@H]7C[C@H]6CN7)nc(OC6CCOCC6)nc45)cc3)nn2)cc1 [Example 38] | 53 |
| Cc1ncsc1-c1ccc([C@H](CO)NC(=O)[C@@H]2C[C@@H](O)CN2C(=O)[C@H](C(C)C)n2cc(-c3ccc(COc4c(-c5c(C)c(F)cc6[nH]ncc56)c(C5CC5)cc5c(N6C[C@@H]7C[C@H]6CN7)nc(OC[C@@H]6CCOC6)nc45)cc3)nn2)cc1 [Example 50] | 11 |
| Cc1ncsc1-c1ccc([C@H](CO)NC(=O)[C@@H]2C[C@@H](O)CN2C(=O)[C@H](C(C)C)n2cc(-c3ccc(COc4c(-c5c(C)c(F)cc6[nH]ncc56)c(C5CC5)cc5c(N6C[C@@H]7C[C@H]6CN7)nc(O[C@H]6CCN(CC(F)F)C6)nc45)cc3)nn2)cc1 [Example 33] | 30 |
| COC[C@H](C)Oc1nc(N2C[C@@H]3C[C@H]2CN3)c2cc(C3CC3)c(-c3c(C)c(F)cc4[nH]ncc34)c(OCc3ccc(-c4cn([C@H](C(=O)N5C[C@H](O)C[C@H]5C(=O)N[C@@H](CO)c5ccc(-c6scnc6C)cc5)C(C)C)nn4)cc3)c2n1 [Example 54] | 8 |
| Cc1ncsc1-c1ccc([C@@H](CO)NC(=O)[C@@H]2C[C@@H](O)CN2C(=O)[C@H](C(C)C)n2cc(-c3ccc(COc4c(-c5c(C)c(F)cc6[nH]ncc56)c(C5CC5)cc5c(N6C[C@@H]7C[C@H]6CN7)nc(OC6CCOCC6)nc45)cc3)nn2)cc1 [Example 68] | 1390 |
| CO[C@@H](C)COc1nc(N2C[C@@H]3C[C@H]2CN3)c2cc(C3CC3)c(-c3c(C)c(F)cc4[nH]ncc34)c(OCc3ccc(-c4cn([C@H](C(=O)N5C[C@H](O)C[C@H]5C(=O)N[C@@H](CO)c5ccc(-n6ccnc6C)cc5)C(C)C)nn4)cc3)c2n1 [Example 71] | 35 |
| Cc1ncsc1-c1ccc([C@H](CO)NC(=O)[C@@H]2C[C@@H](O)CN2C(=O)[C@H](C(C)C)n2cc(-c3ccc(COc4c(-c5c(C)c(F)cc6[nH]ncc56)c(C5CC5)cc5c(N6C[C@@H]7C[C@H]6CN7)nc(O[C@@H](C)[C@H](C)O)nc45)cc3)nn2)cc1 [Example 42] | 6 |
| CO[C@@H](C)[C@H](C)Oc1nc(N2C[C@@H]3C[C@H]2CN3)c2cc(C3CC3)c(-c3c(C)c(F)cc4[nH]ncc34)c(OCc3ccc(-c4cn([C@H](C(=O)N5C[C@H](O)C[C@H]5C(=O)N[C@@H](CO)c5ccc(-c6scnc6C)cc5)C(C)C)nn4)cc3)c2n1 [Example 41] | 9 |
| CC[C@@H](C)Oc1nc(N2C[C@@H]3C[C@H]2CN3)c2cc(C3CC3)c(-c3c(C)c(F)cc4[nH]ncc34)c(OCc3ccc(-c4cn([C@H](C(=O)N5C[C@H](O)C[C@H]5C(=O)N[C@@H](CO)c5ccc(-c6scnc6C)cc5)C(C)C)nn4)cc3)c2n1 [Example 43] | 10 |
| Cc1ncsc1-c1ccc([C@H](CO)NC(=O)[C@@H]2C[C@@H](O)CN2C(=O)[C@H](C(C)C)n2cc(-c3ccc(COc4c(-c5c(C)c(F)cc6[nH]ncc56)c(C5CC5)cc5c(N6C[C@@H]7C[C@H]6CN7)nc(OC6CCOCC6)nc45)cc3F)nn2)cc1 [Example 49, (4R)-1-[(2S)-2-(4-{4-[({6-cyclopropyl-4-[(1S,4S)-2,5-diazabicyclo[2.2.1]heptan-2-yl]-7-(6-fluoro-5-methyl-1H-indazol-4-yl)-2-[(oxan-4-yl)oxy]quinazolin-8-yl}oxy)methyl]-2-fluorophenyl}-1H-1,2,3-triazol-1-yl)-3-methylbutanoyl]-4-hydroxy-N-{(1R)-2-hydroxy-1-[4-(4-methyl-1,3-thiazol-5-yl)phenyl]ethyl}-L-prolinamide] | 15 |
| Cc1ncsc1-c1ccc([C@H](CO)NC(=O)[C@@H]2C[C@@H](O)CN2C(=O)[C@H](C(C)C)n2cc(-c3ccc(COc4c(-c5c(C)c(F)cc6[nH]ncc56)c(C5CC5)cc5c(N6C[C@@H]7C[C@H]6CN7)nc(O[C@@H]6CCN(CC(F)F)C6)nc45)cc3)nn2)cc1 [Example 34] | 24 |
| Cc1ncsc1-c1ccc([C@H](CO)NC(=O)[C@@H]2C[C@@H](O)CN2C(=O)[C@H](C(C)C)n2cc(-c3ccc(COc4c(-c5c(C)c(F)cc6[nH]ncc56)c(C5CC5)cc5c(N6C[C@@H]7C[C@H]6CN7)nc(OC[C@H]6CCCN6C)nc45)cc3)nn2)cc1 [Example 60] | 102 |
